Experimental data reported in patent US12371428B2 (Exelixis, Inc., priority 2019, dated 2025).

Tests used:
Type in all cases: cell-based
[1] = target: Mer (phospho-Mer, MERTK-transfected 293A cells) (Homo sapiens (Human), UniProt Q12866); assay: Mer autophosphorylation ELISA in transient transfected 293A cells (Example H); details: cellular activity; Mer autophosphorylation ELISA in transient transfected 293A cells
In short: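 IC50 from phospho-Mer ELISA of MERTK-transfected 293A cell lysates after 1 h treatment with serially diluted compound in serum-free medium.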

[2] = target: Met (phospho-Met, HGF-stimulated PC-3 prostate cancer cells) (Homo sapiens (Human), UniProt P08581); assay: Met autophosphorylation ELISA in PC-3 cells (Example F); details: cellular activity; Met autophosphorylation ELISA in PC-3 cells; read-out: c-Met IC50
Sequence of Met (phospho-Met, HGF-stimulated PC-3 prostate cancer cells) (P08581 25-1390): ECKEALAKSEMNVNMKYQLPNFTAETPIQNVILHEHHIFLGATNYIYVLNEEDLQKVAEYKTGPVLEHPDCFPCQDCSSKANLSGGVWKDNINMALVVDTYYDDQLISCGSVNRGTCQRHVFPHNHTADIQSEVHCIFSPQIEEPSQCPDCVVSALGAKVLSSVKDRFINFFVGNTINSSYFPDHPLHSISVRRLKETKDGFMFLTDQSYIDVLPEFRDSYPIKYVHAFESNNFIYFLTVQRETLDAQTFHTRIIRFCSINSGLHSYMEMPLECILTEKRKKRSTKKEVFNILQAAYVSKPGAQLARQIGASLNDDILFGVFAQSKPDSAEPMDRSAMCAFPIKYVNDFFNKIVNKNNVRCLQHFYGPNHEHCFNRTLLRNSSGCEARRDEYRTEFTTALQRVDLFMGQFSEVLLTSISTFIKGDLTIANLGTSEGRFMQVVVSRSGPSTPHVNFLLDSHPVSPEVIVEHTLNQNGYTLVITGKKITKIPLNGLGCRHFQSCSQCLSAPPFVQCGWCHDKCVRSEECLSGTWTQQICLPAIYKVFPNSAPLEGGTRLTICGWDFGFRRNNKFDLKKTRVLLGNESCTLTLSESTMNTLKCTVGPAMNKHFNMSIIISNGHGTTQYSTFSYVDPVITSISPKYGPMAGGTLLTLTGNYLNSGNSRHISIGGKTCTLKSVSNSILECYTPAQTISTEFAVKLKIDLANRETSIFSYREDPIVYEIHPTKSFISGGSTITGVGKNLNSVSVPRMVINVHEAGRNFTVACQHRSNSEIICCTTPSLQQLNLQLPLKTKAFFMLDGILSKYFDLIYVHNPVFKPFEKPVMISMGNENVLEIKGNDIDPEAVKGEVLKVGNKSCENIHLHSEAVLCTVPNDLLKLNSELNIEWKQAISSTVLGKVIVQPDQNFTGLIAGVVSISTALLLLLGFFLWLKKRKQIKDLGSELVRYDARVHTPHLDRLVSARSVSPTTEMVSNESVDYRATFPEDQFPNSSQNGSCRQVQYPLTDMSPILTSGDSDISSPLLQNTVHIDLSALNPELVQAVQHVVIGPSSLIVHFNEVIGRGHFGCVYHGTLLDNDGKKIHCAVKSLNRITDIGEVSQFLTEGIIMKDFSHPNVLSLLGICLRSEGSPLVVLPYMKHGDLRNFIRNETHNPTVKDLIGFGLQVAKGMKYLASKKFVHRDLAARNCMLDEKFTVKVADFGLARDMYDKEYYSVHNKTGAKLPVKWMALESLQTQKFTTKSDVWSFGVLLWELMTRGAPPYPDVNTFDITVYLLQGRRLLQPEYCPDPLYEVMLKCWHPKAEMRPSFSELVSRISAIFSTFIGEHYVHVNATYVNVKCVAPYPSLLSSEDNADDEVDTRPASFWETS
In short: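 Sandwich ELISA for phospho-Met (panTyr) in PC-3 lysates. Cells starved 3 h serum-free, compound 1 h (8-pt curve, 0.3% DMSO), HGF 100 ng/mL 10 min. 100% = HGF + DMSO; 0% = HGF + reference inhibitor. IC50 by 4-parameter fit.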

[3] = target: KDR (phospho-KDR, VEGF165-stimulated HUVEC cells) (Homo sapiens (Human), UniProt P35968); assay: KDR autophosphorylation ELISA in HUVEC cells (Example G); details: cellular activity; KDR autophosphorylation ELISA in HUVEC cells
Sequence of KDR (phospho-KDR, VEGF165-stimulated HUVEC cells) (P35968 20-1356): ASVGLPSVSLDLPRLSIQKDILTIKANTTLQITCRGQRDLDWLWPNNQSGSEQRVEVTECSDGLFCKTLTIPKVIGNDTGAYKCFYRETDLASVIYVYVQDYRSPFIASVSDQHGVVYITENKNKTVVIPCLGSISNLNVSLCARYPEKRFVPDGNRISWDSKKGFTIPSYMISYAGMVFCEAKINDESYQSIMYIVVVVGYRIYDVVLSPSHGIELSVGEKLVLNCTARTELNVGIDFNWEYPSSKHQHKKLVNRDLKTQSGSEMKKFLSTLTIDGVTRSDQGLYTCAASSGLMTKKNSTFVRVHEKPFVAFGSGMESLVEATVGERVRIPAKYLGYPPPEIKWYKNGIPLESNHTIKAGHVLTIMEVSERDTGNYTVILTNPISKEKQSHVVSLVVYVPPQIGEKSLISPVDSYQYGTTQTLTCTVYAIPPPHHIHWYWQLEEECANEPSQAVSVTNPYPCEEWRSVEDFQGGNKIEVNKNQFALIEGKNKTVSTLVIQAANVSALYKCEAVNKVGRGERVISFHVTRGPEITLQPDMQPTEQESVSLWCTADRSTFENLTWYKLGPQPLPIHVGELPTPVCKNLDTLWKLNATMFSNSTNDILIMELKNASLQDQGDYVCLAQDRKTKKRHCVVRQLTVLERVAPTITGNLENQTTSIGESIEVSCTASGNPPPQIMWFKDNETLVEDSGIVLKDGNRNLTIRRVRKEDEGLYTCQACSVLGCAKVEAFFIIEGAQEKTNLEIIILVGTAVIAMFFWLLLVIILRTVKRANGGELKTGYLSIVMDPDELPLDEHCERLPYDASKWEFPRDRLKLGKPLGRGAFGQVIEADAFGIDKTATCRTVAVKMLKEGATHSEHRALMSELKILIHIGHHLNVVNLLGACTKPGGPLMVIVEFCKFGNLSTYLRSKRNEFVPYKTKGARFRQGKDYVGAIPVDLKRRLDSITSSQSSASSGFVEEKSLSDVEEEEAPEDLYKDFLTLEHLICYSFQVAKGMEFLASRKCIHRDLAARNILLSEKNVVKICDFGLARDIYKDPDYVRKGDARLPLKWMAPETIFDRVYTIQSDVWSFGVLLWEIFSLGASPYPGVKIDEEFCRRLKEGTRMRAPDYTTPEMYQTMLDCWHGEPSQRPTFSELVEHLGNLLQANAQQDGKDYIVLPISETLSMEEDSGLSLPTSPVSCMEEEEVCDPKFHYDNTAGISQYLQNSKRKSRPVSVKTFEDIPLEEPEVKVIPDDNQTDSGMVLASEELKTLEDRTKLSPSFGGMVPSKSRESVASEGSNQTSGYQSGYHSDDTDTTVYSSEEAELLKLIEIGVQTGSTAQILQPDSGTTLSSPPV
In short: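 Inhibition of VEGF165-driven KDR autophosphorylation is measured in primary human umbilical vein endothelial cells after 24 h serum deprivation. Compound preincubation lasts 1 h before a 5-minute challenge with 100 ng/mL ligand, and phosphorylated receptor is then measured by ELISA in the lysates.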

Sequence of Mer (phospho-Mer, MERTK-transfected 293A cells) (Q12866 21-999): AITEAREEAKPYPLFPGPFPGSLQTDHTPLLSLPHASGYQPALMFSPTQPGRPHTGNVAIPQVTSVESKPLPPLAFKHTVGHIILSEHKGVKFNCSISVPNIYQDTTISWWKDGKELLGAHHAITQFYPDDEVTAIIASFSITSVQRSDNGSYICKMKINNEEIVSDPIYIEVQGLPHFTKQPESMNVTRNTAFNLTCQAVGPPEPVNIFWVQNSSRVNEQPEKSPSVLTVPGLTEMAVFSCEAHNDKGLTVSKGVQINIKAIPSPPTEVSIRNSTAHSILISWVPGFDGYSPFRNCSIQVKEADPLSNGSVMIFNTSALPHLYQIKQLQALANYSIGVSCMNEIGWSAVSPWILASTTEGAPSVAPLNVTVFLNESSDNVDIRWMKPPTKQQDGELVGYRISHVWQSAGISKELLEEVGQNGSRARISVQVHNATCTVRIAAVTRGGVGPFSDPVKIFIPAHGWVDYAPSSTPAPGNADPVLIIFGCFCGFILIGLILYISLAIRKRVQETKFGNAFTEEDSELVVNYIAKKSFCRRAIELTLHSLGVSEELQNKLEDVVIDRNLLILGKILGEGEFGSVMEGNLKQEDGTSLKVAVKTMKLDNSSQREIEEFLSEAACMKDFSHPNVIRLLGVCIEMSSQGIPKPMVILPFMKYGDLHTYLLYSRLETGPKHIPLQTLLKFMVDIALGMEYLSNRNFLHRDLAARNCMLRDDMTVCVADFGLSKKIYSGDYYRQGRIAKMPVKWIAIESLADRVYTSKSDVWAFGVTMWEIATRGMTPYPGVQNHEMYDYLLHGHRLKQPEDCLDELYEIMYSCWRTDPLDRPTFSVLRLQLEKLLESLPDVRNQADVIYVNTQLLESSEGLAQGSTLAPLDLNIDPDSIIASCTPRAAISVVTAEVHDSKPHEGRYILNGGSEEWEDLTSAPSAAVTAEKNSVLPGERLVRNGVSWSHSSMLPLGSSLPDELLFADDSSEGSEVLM

Structure (SMILES) | IC50 [1] [nM] | IC50 [2] [nM] | IC50 [3] [nM]
COc1cc2nccc(Oc3ccc(NC(=O)c4cncc(-c5ccc(F)cc5)c4O)cc3F)c2nc1OC [Compound 42, N-[4-[(6,7-Dimethoxy-1,5-naphthyridin-4-yl)oxy]-3-fluorophenyl]-5-(4-fluorophenyl)-4-hydroxypyridine-3-carboxamide] | < 100 | < 100 | < 100
COc1cc2nccc(Oc3ccc(NC(=O)c4cn(C(C)C)cc(-c5ccc(F)cc5)c4=O)cc3F)c2cc1OC [Compound 43, N-[4-(6,7-Dimethoxyquinolin-4-yl)oxy-3-fluorophenyl]-5-(4-fluorophenyl)-4-oxo-1-propan-2-ylpyridine-3-carboxamide] | < 100 | < 100 | < 100
COc1cc2nccc(Oc3ccc(NC(=O)c4cn(C5CCCC5)cc(-c5ccc(F)cc5)c4=O)cc3F)c2nc1OC [Compound 46, 1-Cyclopentyl-N-[4-[(6,7-dimethoxy-1,5-naphthyridin-4-yl)oxy]-3-fluorophenyl]-5-(4-fluorophenyl)-4-oxopyridine-3-carboxamide] | < 100 | < 100 | 100 to 300
COc1cc2nccc(Oc3ccc(NC(=O)c4cn(C5COC5)cc(-c5ccc(F)cc5)c4=O)cc3F)c2nc1OC [Compound 47, N-[4-[(6,7-Dimethoxy-1,5-naphthyridin-4-yl)oxy]-3-fluorophenyl]-5-(4-fluorophenyl)-1-(oxetan-3-yl)-4-oxopyridine-3-carboxamide] | < 100 | < 100 | > 300
CNc1ncc(C(=O)Nc2ccc(Oc3ccnc4cc(OC)c(OC)nc34)c(F)c2)c(=O)n1-c1ccc(F)cc1 [Compound 99, N-[4-[(6,7-Dimethoxy-1,5-naphthyridin-4-yl)oxy]-3-fluorophenyl]-1-(4-fluorophenyl)-2-(methylamino)-6-oxopyrimidine-5-carboxamide] | < 100 | < 100 | < 100
COc1cc2nccc(Oc3ccc(NC(=O)c4c[nH]c(=S)n(-c5ccc(F)cc5)c4=O)cc3F)c2nc1OC [Compound 104, N-[4-[(6,7-Dimethoxy-1,5-naphthyridin-4-yl)oxy]-3-fluorophenyl]-3-(4-fluorophenyl)-4-oxo-2-sulfanylidene-1H-pyrimidine-5-carboxamide] | < 100 | < 100 | < 100
COc1cnc2c(Oc3ccc(NC(=O)c4cn(C)c(C)c(-c5ccc(F)cc5C)c4=O)cc3)ccnc2c1 [Compound 187, 5-(4-Fluoro-2-methylphenyl)-N-[4-[(7-methoxy-1,5-naphthyridin-4-yl)oxy]phenyl]-1,6-dimethyl-4-oxopyridine-3-carboxamide] | < 100 | < 100 | > 300
COc1cc2nccc(Oc3ccc(NC(=O)c4ccc(C)n(-c5ccc(F)cc5)c4=O)cc3F)c2nc1OC [Compound 254, N-[4-[(6,7-Dimethoxy-1,5-naphthyridin-4-yl)oxy]-3-fluorophenyl]-1-(4-fluorophenyl)-6-methyl-2-oxopyridine-3-carboxamide] | < 100 | < 100 | < 100
COc1cc2nccc(Oc3ccc(NC(=O)c4cn(CC(F)(F)F)c(C)c(-c5ccc(F)cc5)c4=O)cc3)c2cc1OC [Compound 260, N-[4-(6,7-Dimethoxyquinolin-4-yl)oxyphenyl]-5-(4-fluorophenyl)-6-methyl-4-oxo-1-(2,2,2-trifluoroethyl)pyridine-3-carboxamide] | < 100 | 100 to 300 | > 300
COCCOc1ccc2nccc(Oc3ccc(NC(=O)c4cnc(C)c(-c5ccc(F)cc5)c4O)cc3F)c2n1 [Compound 348, N-[3-fluoro-4-[[6-(2-methoxyethoxy)-1,5-naphthyridin-4-yl]oxy]phenyl]-5-(4-fluorophenyl)-4-hydroxy-6-methylpyridine-3-carboxamide] | < 100 | < 100 | < 100
COCCOc1ccc2nccc(Oc3ccc(NC(=O)c4c(C)nc(C)c(-c5ccc(F)cc5)c4O)cc3F)c2n1 [Compound 349, N-[3-fluoro-4-[[6-(2-methoxyethoxy)-1,5-naphthyridin-4-yl]oxy]phenyl]-5-(4-fluorophenyl)-4-hydroxy-2,6-dimethylpyridine-3-carboxamide] | < 100 | < 100 | < 100
COc1cc2ncnc(Oc3ccc(NC(=O)c4c5n(cc(-c6ccc(F)cc6)c4=O)CCC5)cc3F)c2cc1OC [Compound 406, N-[4-(6,7-dimethoxyquinazolin-4-yl)oxy-3-fluorophenyl]-6-(4-fluorophenyl)-7-oxo-2,3-dihydro-1H-indolizine-8-carboxamide] | < 100 | < 100 | < 100

Next, values leading:

IC50 [1] [nM] | IC50 [2] [nM] | IC50 [3] [nM] | Structure (SMILES)
< 100 | < 100 | < 100 | COc1cc2nccc(Oc3ccc(NC(=O)c4cn(C(C)C)c(C)c(-c5ccc(F)cc5)c4=O)cc3F)c2nc1OC [Compound 21, N-[4-[(6,7-Dimethoxy-1,5-naphthyridin-4-yl)oxy]-3-fluorophenyl]-5-(4-fluorophenyl)-6-methyl-4-oxo-1-propan-2-ylpyridine-3-carboxamide]
< 100 | < 100 | 100 to 300 | COc1cc2nccc(Oc3ccc(NC(=O)c4cn(C(C)C)c(C)c(-c5ccc(F)cc5)c4=O)cc3F)c2cc1OC [Compound 22, N-[4-(6,7-Dimethoxyquinolin-4-yl)oxy-3-fluorophenyl]-5-(4-fluorophenyl)-6-methyl-4-oxo-1-propan-2-ylpyridine-3-carboxamide]
< 100 | 100 to 300 | > 300 | COc1cc2nccc(Oc3ccc(NC(=O)c4cn(C(C)C)c(C)c(-c5ccc(Cl)c(Cl)c5)c4=O)cc3F)c2cc1OC [Compound 23, 5-(3,4-Dichlorophenyl)-N-[4-(6,7-dimethoxyquinolin-4-yl)oxy-3-fluorophenyl]-6-methyl-4-oxo-1-propan-2-ylpyridine-3-carboxamide]
< 100 | < 100 | 100 to 300 | COc1cc2nccc(Oc3ccc(NC(=O)c4cn(C(C)C)c(C)c(-c5ccc(F)c(Cl)c5)c4=O)cc3F)c2nc1OC [Compound 24, 5-(3-Chloro-4-fluorophenyl)-N-[4-[(6,7-dimethoxy-1,5-naphthyridin-4-yl)oxy]-3-fluorophenyl]-6-methyl-4-oxo-1-propan-2-ylpyridine-3-carboxamide]
< 100 | < 100 | 100 to 300 | COc1cc2nccc(Oc3ccc(NC(=O)c4cn(C(C)C)c(C)c(-c5ccc(Cl)c(Cl)c5)c4=O)cc3F)c2nc1OC [Compound 25, 5-(3,4-Dichlorophenyl)-N-[4-[(6,7-dimethoxy-1,5-naphthyridin-4-yl)oxy]-3-fluorophenyl]-6-methyl-4-oxo-1-propan-2-ylpyridine-3-carboxamide]
< 100 | < 100 | < 100 | COc1cc2nccc(Oc3ccc(NC(=O)c4cn(C5CCCC5)c(C)c(-c5ccc(F)cc5)c4=O)cc3F)c2nc1OC [Compound 26]
< 100 | < 100 | < 100 | COc1cc2nccc(Oc3ccc(NC(=O)c4cn(C5CCCC5)c(C)c(-c5ccc(F)c(Cl)c5)c4=O)cc3F)c2nc1OC [Compound 27, 5-(3-Chloro-4-fluorophenyl)-1-cyclopentyl-N-[4-[(6,7-dimethoxy-1,5-naphthyridin-4-yl)oxy]-3-fluorophenyl]-6-methyl-4-oxopyridine-3-carboxamide]
< 100 | < 100 | 100 to 300 | COc1cc2nccc(Oc3ccc(NC(=O)c4cn(C5CC5)cc(-c5ccc(F)cc5)c4=O)cc3F)c2nc1OC [Compound 41, 1-Cyclopropyl-N-[4-[(6,7-dimethoxy-1,5-naphthyridin-4-yl)oxy]-3-fluorophenyl]-5-(4-fluorophenyl)-4-oxopyridine-3-carboxamide]
< 100 | < 100 | 100 to 300 | COc1cc2nccc(Oc3ccc(NC(=O)c4cn(C(C)C)cc(-c5ccc(F)cc5)c4=O)cc3F)c2nc1OC [Compound 44, N-[4-[(6,7-Dimethoxy-1,5-naphthyridin-4-yl)oxy]-3-fluorophenyl]-5-(4-fluorophenyl)-4-oxo-1-propan-2-ylpyridine-3-carboxamide]
< 100 | < 100 | < 100 | COc1cc2nccc(Oc3ccc(NC(=O)c4cn(C)cc(-c5ccc(F)cc5)c4=O)cc3F)c2nc1OC [Compound 45, N-[4-[(6,7-Dimethoxy-1,5-naphthyridin-4-yl)oxy]-3-fluorophenyl]-5-(4-fluorophenyl)-1-methyl-4-oxopyridine-3-carboxamide]
< 100 | < 100 | < 100 | COc1cc2nccc(Oc3ccc(NC(=O)c4c(C)nc(C)c(-c5ccc(F)cc5)c4O)cc3F)c2nc1OC [Compound 154, N-[4-[(6,7-Dimethoxy-1,5-naphthyridin-4-yl)oxy]-3-fluorophenyl]-5-(4-fluorophenyl)-4-hydroxy-2,6-dimethylpyridine-3-carboxamide]
